Experimental data from patent publication US9216163B2, “Method of inhibiting angiogenesis” (KYORIN PHARMACEUTICAL CO., LTD, priority 2013, dated 2015).

Tests used:
Akt = experiment: VEGF-induced phosphorylation of Akt in HUVEC (Western blot); format: cell-based, human; details: 100 μM pretreatment 15 minutes, VEGF 30 ng/mL for 5 or 15 minutes
Method: (§1) An effect of L-carbocisteine against phosphorylation of Akt, Erk1/2, c-Jun N-terminal kinase (JNK), and p38 MAP kinase accelerated by VEGF stimulation was evaluated using HUVEC. HUVEC were inoculated, and cultured in an EBM-2 medium containing 0.1% FBS overnight under starvation condition. The HUVEC were pretreated with L-carbocisteine (100 μM) for 15 minutes, and stimulated by VEGF (30 ng/mL) for 5 or 15 minutes. Phosphorylation accelerated by VEGF stimulation was evaluated using phosphor-specific antibodies against various kinases by a Western blot method. The level of kinase protein expression was investigated using each antibody after detection of phosphorylation.

[1] = system: c-Jun N-terminal kinase (JNK); experiment: VEGF-induced phosphorylation of JNK in HUVEC (Western blot); format: cell-based, human; details: 100 μM pretreatment 15 minutes, VEGF 30 ng/mL for 5 or 15 minutes
Method: as §1

Erk1/2 = experiment: VEGF-induced phosphorylation of Erk1/2 in HUVEC (Western blot); format: cell-based, human; details: 100 μM pretreatment 15 minutes, VEGF 30 ng/mL for 5 or 15 minutes
Method: as §1

p38 MAP kinase = experiment: VEGF-induced phosphorylation of p38 MAP kinase in HUVEC (Western blot); format: cell-based, human; details: 100 μM pretreatment 15 minutes, VEGF 30 ng/mL for 5 or 15 minutes
Method: as §1

HUVEC [2] = experiment: VEGF-induced tube formation of HUVEC in collagen; format: cell-based, human; details: 100 μM pretreatment 15 minutes, VEGF 30 ng/mL, after 24 hours
Method: An effect of L-carbocisteine against tube formation promoted by VEGF was evaluated in vitro using HUVEC. A collagen Type 1-C (available from Nitta Gelatin Inc.) lower layer was formed on a 12-well plate, HUVEC were inoculated on the lower layer, and a collagen upper layer was then formed. The HUVEC were pretreated with L-carbocisteine (100 μM) for 15 minutes, and stimulated by VEGF (30 ng/mL). The overall length of the lumen after 24 hours was measured (n=6).

[3] = system: VEGF-induced angiogenesis formed in Matrigel; experiment: VEGF-induced angiogenesis in Matrigel, in vivo mouse model (Evans blue); details: male C57BL/6J mouse, 5 μg/g B.W. intraperitoneal twice daily for 14 days
Method: An effect of L-carbocisteine against angiogenesis promoted by VEGF was evaluated in an in vivo mouse model. A male C57BL/6J mouse (6 weeks) was anesthetized with pentobarbital. Subsequently, 500 μL of BD™ matrix containing 30 ng/mL VEGF was subcutaneously injected into the side of the mouse using a 27-G needle. L-carbocisteine (5 μg per g of body weight of the mouse) or physiologic saline (the same volume) was intraperitoneally administered twice a day, morning and evening, for 14 days. After completion of the administration for 14 days, Evans blue was administered to the mouse via the orbital vein plexus. The mouse was sufficiently perfused with EDTA, and anesthetized with pentobarbital. The matrigel was taken out from the body of the mouse. The weight of taken matrigel was measured, and the matrigel was immersed in a formamide solution and allowed to stand at 37° C. for 48 hours. Following elution of Evans blue in the formamide solution, the weight of eluted Evans blue per unit weight of the matrigel was measured using an absorbance of 620 nm (n=8).

HUVEC [4] = experiment: VEGF-induced cell growth of HUVEC (Cell Counting Kit-8); format: cell-based, human; details: VEGF 30 ng/mL
Method: An effect of L-carbocisteine against cell growth promotion by VEGF was evaluated in vitro using HUVEC. HUVEC were inoculated at 2,500 cells/well in a 96-well microplate, and cultured for 24 hours. Subsequently, the HUVEC were cultured in a medium without VEGF and bFGF overnight under a starvation condition. The HUVEC were pretreated with L-carbocisteine (10, 50, 100, and 200 μM) for 15 minutes, and then stimulated by VEGF (30 ng/mL). The number of living cells after 48 hours was determined by Cell Counting Kit-8 (manufactured by DOJINDO LABORATORIES) (n=6). 2) Results

HUVEC [5] = experiment: VEGF-induced cell migration of HUVEC; format: cell-based, human; details: 100 μM pretreatment 15 minutes, VEGF 30 ng/mL, after 12 hours
Method: An effect of L-carbocisteine against cell migration promoted by VEGF was evaluated in vitro using HUVEC. HUVEC were inoculated in a plate, and cultured until confluent. Subsequently, the HUVEC were cultured in a medium without VEGF and bFGF overnight under starvation condition. The HUVEC were pretreated with L-carbocisteine (100 μM) for 15 minutes. The cells (HUVEC) on the plate were peeled at certain intervals. The cells remaining on the plate were stimulated by VEGF (30 ng/mL). After 12 hours, the distance of cell migration was measured (n=4).

N[C@@H](CSCC(=O)O)C(=O)O [L-carbocisteine, S-(carboxymethyl)-L-cysteine] was tested, and the “accelerated phosphorylation of Akt” value (Akt) was “only accelerated phosphorylation of Erk1/2 was specifically suppressed”, the “accelerated phosphorylation of JNK” value [1] was “only accelerated phosphorylation of Erk1/2 was specifically suppressed” and the “accelerated phosphorylation of Erk1/2” value (Erk1/2) was “specifically suppressed”. The “accelerated phosphorylation of p38 MAP kinase” value (p38 MAP kinase) was “only accelerated phosphorylation of Erk1/2 was specifically suppressed”, the “tube formation promoted by VEGF (overall length of the lumen)” value (HUVEC [2]) was “significantly suppressed” and the “vascular density in the matrigel” value [3] was “markedly decreased”. For the same molecule, the “growth suppressive effect, concentration dependence” value (HUVEC [4]; 10, 50, 100 and 200 μM, 48 hours) was “concentration-dependent”, the “endothelial cell growth promoted by VEGF” value (HUVEC [4]; pretreatment with 100 μM or more for 15 minutes, living cells after 48 hours) was “significantly suppressed” and the “migration promoted by VEGF (distance of cell migration)” value (HUVEC [5]) was “significantly suppressed”.
